Data as given in ChEMBL document CHEMBL3885861, “Open TG-GATES”.

Organism: Rattus norvegicus
Experiment: Open TG-GATES - Regimen: Daily Repeat
Format: toxicity, organism-based, Sprague-Dawley
Parameters: regimen Daily Repeat, gender Male, age 6 weeks
Conditions: in vivo, po, route gavage; for AST / BUN / CRE / Ca / Cl / DBIL / GLC / IP / K / LDH / Na / PL / RALB / TBIL / TC / TG / TP / gamma-GTP / A/G / ALP / ALT: tissue Plasma; for APTT / Bas / Eos / Fbg / Hb / Ht / Lym / MCH / MCHC / MCV / Mono / Neu / PT / Plat / RBC / Ret / WBC: tissue Blood; for KIDNEY_L / KIDNEY_R / KIDNEY_TOTAL: tissue Kidney; for LIVER: tissue Liver
[1] = 100 mg/kg, […], dose level Middle, time 7 day
[2] = 100 mg/kg, […], dose level Middle, time 14 day
[3] = 100 mg/kg, […], dose level Middle, time 28 day
[4] = 300 mg/kg, 72 h, dose level High, time 3 day
[5] = 300 mg/kg, […], dose level High, time 7 day
[6] = 300 mg/kg, […], dose level High, time 14 day

CCc1cc(C(N)=S)ccn1 [ETHIONAMIDE]
AST [1]: 66.8 IU/L | BUN [1]: 15.8 mg/dL | CRE [1]: 0.4 mg/dL | Ca [1]: 10.4 mg/dL | Cl [1]: 104 meq/L | DBIL [1]: 0.088 mg/dL | GLC [1]: 194.8 mg/dL | IP [1]: 6.7 mg/dL | K [1]: 4.6 meq/L | LDH [1]: 106.2 IU/L | Na [1]: 139.8 meq/L | PL [1]: 122.2 mg/dL | RALB [1]: 3.7 g/dL | TBIL [1]: 0.3 mg/dL | TC [1]: 62 mg/dL | TG [1]: 52.2 mg/dL | TP [1]: 5.7 g/dL | gamma-GTP [1]: 2.4 IU/L | A/G [2]: 2.6 | ALP [2]: 878.4 IU/L | ALT [2]: 33.8 IU/L | AST [2]: 58.8 IU/L | BUN [2]: 16.8 mg/dL | CRE [2]: 0.5 mg/dL | Ca [2]: 10.5 mg/dL | Cl [2]: 105 meq/L | DBIL [2]: 0.034 mg/dL | GLC [2]: 196.8 mg/dL | IP [2]: 6.6 mg/dL | K [2]: 4.4 meq/L | LDH [2]: 82 IU/L | Na [2]: 142.2 meq/L | PL [2]: 125.2 mg/dL | RALB [2]: 4.2 g/dL | TBIL [2]: 0.3 mg/dL | TC [2]: 60.6 mg/dL | TG [2]: 65.8 mg/dL | TP [2]: 5.8 g/dL | gamma-GTP [2]: 1.4 IU/L | A/G [3]: 2.1 | ALP [3]: 579.4 IU/L | ALT [3]: 39.4 IU/L | AST [3]: 56 IU/L | BUN [3]: 19 mg/dL | CRE [3]: 0.6 mg/dL | Ca [3]: 9.9 mg/dL | Cl [3]: 104.4 meq/L | DBIL [3]: 0.016 mg/dL | GLC [3]: 196 mg/dL | IP [3]: 5.9 mg/dL | K [3]: 4.6 meq/L | LDH [3]: 86.2 IU/L | Na [3]: 140 meq/L | PL [3]: 121.6 mg/dL | RALB [3]: 4.2 g/dL | TBIL [3]: 0.3 mg/dL | TC [3]: 62.4 mg/dL | TG [3]: 60.4 mg/dL | TP [3]: 6.2 g/dL | gamma-GTP [3]: 1.8 IU/L | TERMINAL_BW [4]: 204.1 g | APTT [4]: 20 s | Bas [4]: 0% | Eos [4]: 1.4% | Fbg [4]: 161.6 mg/dL | Hb [4]: 17.1 g/dL | Ht [4]: 50.4% | Lym [4]: 59.8% | MCH [4]: 21.7 pg | MCHC [4]: 34.1% | MCV [4]: 63.5 fL | Mono [4]: 6.4% | Neu [4]: 32.6% | PT [4]: 16 s | Plat [4]: 119.1 x10_4/uL | RBC [4]: 794.4 x10_4/ul | Ret [4]: 13.3% | WBC [4]: 115.4 x10_2/uL | KIDNEY_L [4]: 1 g | KIDNEY_R [4]: 1 g | KIDNEY_TOTAL [4]: 2 g | LIVER [4]: 10.3 g | A/G [4]: 2.3 | ALP [4]: 1108.2 IU/L | ALT [4]: 72.6 IU/L | AST [4]: 190.6 IU/L | BUN [4]: 12.2 mg/dL | CRE [4]: 0.5 mg/dL | Ca [4]: 9.7 mg/dL | Cl [4]: 106.2 meq/L | DBIL [4]: 0.1 mg/dL | GLC [4]: 172.6 mg/dL | IP [4]: 7.6 mg/dL | K [4]: 4.6 meq/L | LDH [4]: 244 IU/L | Na [4]: 139.4 meq/L | PL [4]: 82.8 mg/dL | RALB [4]: 3.4 g/dL | TBIL [4]: 0.3 mg/dL | TC [4]: 46.4 mg/dL | TG [4]: 16 mg/dL | TP [4]: 4.9 g/dL | gamma-GTP [4]: 1.4 IU/L | TERMINAL_BW [5]: 227.8 g | APTT [5]: 21.4 s | Bas [5]: 0.3% | Eos [5]: 3.7% | Fbg [5]: 206 mg/dL | Hb [5]: 16 g/dL | Ht [5]: 46.9% | Lym [5]: 44.7% | MCH [5]: 20.2 pg | MCHC [5]: 34.1% | MCV [5]: 59.2 fL | Mono [5]: 9% | Neu [5]: 42% | PT [5]: 14.7 s | Plat [5]: 109.9 x10_4/uL | RBC [5]: 792.3 x10_4/ul | Ret [5]: 2.8% | WBC [5]: 127.9 x10_2/uL | Bas [6]: 0% | MCHC [6]: 34.2% | KIDNEY_L [5]: 1 g | KIDNEY_R [5]: 1 g | KIDNEY_TOTAL [5]: 2.1 g | KIDNEY_L [6]: 1 g | KIDNEY_TOTAL [6]: 2.1 g | LIVER [5]: 11.3 g | A/G [5]: 1.7 | ALP [5]: 739.3 IU/L | ALT [5]: 66 IU/L | AST [5]: 129 IU/L | BUN [5]: 12.7 mg/dL | CRE [5]: 0.4 mg/dL | Ca [5]: 10.1 mg/dL | Cl [5]: 102.3 meq/L | DBIL [5]: 0.0933 mg/dL | GLC [5]: 143 mg/dL | IP [5]: 7.2 mg/dL | K [5]: 3.9 meq/L | LDH [5]: 397.7 IU/L | Na [5]: 136.7 meq/L | PL [5]: 123.7 mg/dL | RALB [5]: 3.6 g/dL | TBIL [5]: 0.3 mg/dL | TC [5]: 95.3 mg/dL | TG [5]: 22.3 mg/dL | TP [5]: 5.7 g/dL | gamma-GTP [5]: 3.7 IU/L | TBIL [6]: 0.3 mg/dL | gamma-GTP [6]: 7 IU/L
